These results are taken from patent US20060167094A1, “Satiety agent” (priority 2005, published 2006).

The subject of series [1] is CCK secretion. The note with it: humans, cited from earlier work.
Series [2] is described as follows: Energy intake from the buffet meal after intraduodenal infusion. It counts as in vivo, human. The procedure:
(§1) Each subject was studied on three occasions, separated by 3-10 days, to evaluate, in a double-blind, randomized fashion, the effects of intraduodenal infusions of 1) C12, 2) C10, or 3) control solution for 90 min on appetite perceptions, energy intake, APD pressures, and plasma CCK and GLP-1 concentrations.
(§2) Once the catheter was positioned correctly, fasting motility was monitored until the occurrence of phase III of the interdigestive migrating motor complex (MMC). Immediately after the cessation of phase III activity [at time t=−15 min], a baseline venous blood sample was taken, and a visual analog scale questionnaire (VAS) (see Measurements), assessing appetite-related sensations, was administered. At t=0 min (i.e., during phase I of the MMC), the duodenal infusion of 1) C12, 2) C10, or 3) control solution was commenced and continued for 90 min. APD pressures were monitored throughout the infusion period; blood samples were taken, and the VAS administered every 15 min from t=0 min until t=90 min. At t=90 min, the infusion was terminated, and the subject was immediately extubated and offered a cold buffet-style meal, the composition of which is provided in Table 1. The amount of food offered was in excess of what the subject was expected to consume. The subject was given 30 min (i.e., t=90 min to t=120 min) to consume the meal and instructed to eat until comfortably full. After ingestion of the meal, the subject was monitored for a further 30 min, a further VAS was completed, and blood samples were taken at t=120 and 150 min. The intravenous cannula was then removed, and the subject was allowed to leave the laboratory.
Energy intake from the buffet meal [energy consumption (in kJ) and macronutrient distribution (in % and g energy)] was analyzed using commercially available software (Food works 3.0, Xyris Software; Highgate Hill, Queensland, Australia). The time taken to finish the meal (in min) was also evaluated.

The nature of series [3]: Antropyloroduodenal (APD) pressures by manometry during intraduodenal infusion. It counts as in vivo, human.
Source text: Subjects attended the laboratory at 0830 after fasting from 2200 the previous night from both solids and liquids. They were intubated with a 17-channel manometric catheter (Dentsleeve; Adelaide, South Australia, Australia) that was inserted through an anesthetized nostril and allowed to pass through the stomach and into the duodenum by peristalsis. The manometric catheter, which consisted of 16 sideholes spaced at 1.5-cm intervals, measures pressures in the antrum, pylorus, and duodenum. Six side holes (channels 1-6) were positioned in the antrum, a 4.5-cm sleeve sensor (channel 7), with two channels present on the back of the sleeve (channels 8 and 9), designed to measure pressure waves occurring over the entire pyloric region, were positioned across the pylorus, and seven channels were positioned in the duodenum (channels 10-16). An additional channel, used for intraduodenal infusions, was positioned 11.75 cm distal to the end of the sleeve sensor. The correct positioning of the catheter, so the sleeve sensor straddled the pylorus, was maintained by continuous measurement of the transmucosal potential difference (TMPD) between the most distal antral channel (channel 6; approximately −40 mV) and the most proximal duodenal channel (channel 10; ˜0 mV). For this purpose, an intravenous cannula filled with sterile saline was placed subcutaneously in the left forearm and used as a reference electrode. All manometric channels were perfused with degassed, distilled water except for the two TMPD channels, which were perfused with degassed 0.9% saline at 0.15 ml/min. An intravenous cannula was also placed into a right forearm vein for blood sampling to measure plasma CCK and GLP-1 concentrations.
as §2
APD pressures. Manometric pressures were digitized, recorded on a computer-based system (PowerMac 7100/75, Apple Computers; Cupertino, Calif.) running commercially available software (HAD, Associate Prof. G S Hebbard, Melbourne, Australia) written in LabView 3.1.1 (National Instruments), and stored for subsequent analysis. APD pressures were analysed for 1) number and amplitude of isolated pyloric pressure waves (IPPWs) and pressure waves (PWs) in the antrum and duodenum and 2) number and length of PW sequences (PWSs) in the duodenum using custom-written software (Gastrointestinal Motility Unit; Utrecht, The Netherlands) modified to our requirements. […]

Series [4] concerns plasma CCK. Put plainly: Plasma CCK concentrations by radioimmunoassay. Type of series: in vivo, human. The method, then: as §2
(§3) Venous blood samples (10 ml) were collected in ice-chilled EDTA-treated tubes containing 400 kIU aprotinin (Trasylol, Bayer Australia) per millilitre of blood. Plasma was separated by centrifugation (3,200 rpm, 15 min, 4° C.) within 30 min of collection and stored at −70° C. until assayed.
Plasma CCK concentrations (in pmol/l) were determined after ethanol extraction using a previously described radioimmunoassay (3). A commercially available antibody (C258, Lot 105H4852, Sigma Chemical) raised in rabbits against the synthetic sulfated CCK-8 was employed. […] The intra-assay coefficient of variation (CV) was 9% and the interassay CV was 27%, with a sensitivity of 2.5 pmol/l. The sensitivity of the assay relates to its reliable detection limit.

For series [5] the following is noted: isomolar concentrations; cited from earlier work.
For series [6], the system named is plasma GLP-1. In words: Plasma GLP-1 concentrations by radioimmunoassay. It counts as in vivo, human. The method, then: as §2, §3
Plasma GLP-1 concentrations (in pmol/l) were measured by radioimmunoassay using an adaptation of a previously published method (4) Antibody, supplied by Prof. […] It is likely that this antibody also reacts with the degraded form of GLP-1(9-36) amide. Intra-assay CV was 17% and interassay CV was 18%, with a sensitivity of 1.5 pmol/l.

Series [7] can be described thus: Appetite perceptions (VAS scores) during and after 90 min intraduodenal infusion. It counts as in vivo, human. The procedure:
as §1, §2
Appetite sensations and energy intake. Subjective sensations of appetite, including hunger, fullness, desire to eat, prospective consumption (“how much food do you think you could eat if you were given a meal now?”), were assessed using validated VASs (Sensations of nausea and bloating were also assessed. Each VAS evaluated a sensation on a 100-mm horizontal line, where 0 represented “sensation is not felt at all” and 100 represented “sensation is felt the greatest.” Subjects were asked to place a vertical stroke on the 100-mm line in relation to what they were feeling at that particular point in time.
Baseline (“0”) values were calculated as the mean of values obtained at t=−15 and 0 min for VAS scores and plasma hormone concentrations and between t=−15 to 0 min for basal pyloric pressures, number, and amplitude of IPPWs, antral and duodenal PWs, and total number of duodenal PWSs. Basal pyloric pressures and the number and amplitude of IPPWs were expressed as means over 15-min segments during the 90-min infusion period. Numbers and amplitudes of antral and duodenal PWs were expressed as total number and mean values, respectively, for the 90-min infusion period. Duodenal PWSs were expressed as the total number of waves travelling over two, three, four, five, six, and seven channels during the 90-min infusion period. All data, except for plasma CCK and GLP-1 concentrations, were expressed as changes from baseline.
VAS scores, basal pyloric pressures, number and amplitude of IPPWs, and plasma hormone concentrations were analyzed by repeated-measures mixed model analysis of covariance (ANCOVA), with baseline as the covariate and time (0-90 min, at 15-min intervals) and treatment as within-subject factors. One-way ANOVA was used to assess the effect of treatment on energy intake, time taken to complete eating, total numbers and mean amplitudes of antral and duodenal PWs, and total number of duodenal PWSs. A logarithmic transformation was applied to nausea scores, antral amplitudes, and duodenal PWSs travelling 7.5 and 9 cm to better address the underlying assumptions of the models used (as these variables lacked normal distribution). If significance or near significance ([…]) was found, post hoc comparisons of least-squares means using Student's t-tests were performed. […]

Where [8] appears, read: buffet meal, compared with control.
The mark [9] stands for this setting: 90 min infusion, compared with control.
Setting [10] is: during 90 min intraduodenal infusion, 0.375 kcal/min, compared with control.

Read-outs that look alike come from different tables or passages of the source.

Take `CCCCCCCCCCC(=O)O` [C11]: the “stimulation of CCK secretion” value in series [1] (gastric infusion) is reported as “neither C11 nor C10”.
`CCCCCCCCCC(=O)O` [C10, decanoic (C10:0) acid, reference compound]: the “stimulation of CCK secretion” value in series [1] (gastric infusion) is “neither C11 nor C10”. In addition, the “energy intake at buffet meal” value in series [2] (after 90 min intraduodenal infusion 0.375 kcal/min, compared with control) is “no difference between C10 and control infusion”. In series [2] (setting [8]), the “amount of energy (in g) ingested from carbohydrate” value is “no difference between C10 and control”; the “amount of energy (in g) ingested from fat” value is “no difference between C10 and control”; the “amount of energy (in g) ingested from protein” value was “no difference between C10 and control”. For the same compound, the “time at which eating from the buffet meal was completed” value in series [2] (mean±SE, not statistically significant) turned out to be 20.6 ± 2.6 min. Besides, in series [3] (setting [9]), the “basal pyloric pressure (tone)” value was “significant difference between C10 and control”; the “number of antral PWs” value was “no difference between C10 and control”; the “number of duodenal PWs” value is reported as “increased the number of duodenal PWs compared with control”. Moreover, the “number of IPPWs compared with control” value in series [3] (C12: 0-15, 15-30 and 30-45 min, C10: 0-15 min) is “increased the number of IPPWs compared with control between 0 and 15 min”. Also, in series [3] (compared with control), the “number of duodenal PWSs travelling over six channels (7.5 to <9 cm)” value is recorded as “decreased the number of waves that travelled over six channels compared with control”; the “number of duodenal PWSs travelling over three channels (3 to <4.5 cm)” value is “no difference between C12 or C10 and control”; the “number of duodenal PWSs travelling over two channels (1.5 to <3 cm)” value is “increased the number of waves compared with control”; the “number of waves that travelled over nine channels” value is “no difference between C10 and control”. Further, the “amplitude of IPPWs compared with control” value in series [3] (throughout the infusion period) was “no significant differences between C10 and control”. In addition, the “plasma CCK concentrations” value in series [4] (during 90 min infusion, compared with control) is on record as “increased plasma CCK concentrations”. Besides, the “time of peak plasma CCK” value in series [4] (from start of infusion) worked out at 15 min. Also, in series [5], the “cytotoxicity relative to C12” value was “similar”. Further, the “plasma GLP-1 concentrations compared with control” value in series [6] (during infusion, C12 effect from 30 to 90 min) is “no difference between C10 and control”. Further, the “plasma GLP-1 concentrations after meal ingestion” value in series [6] (t=120 and 150 min, compared with control) was “no difference between C10 and control”. Also, the “fullness (VAS) after meal ingestion” value in series [7] (at 120 and 150 min, after the buffet meal) is “no difference between C10 and control”. In addition, the “scores for bloating (VAS)” value in series [7] (during 90 min intraduodenal infusion, 0.375 kcal/min) is recorded as “increased scores for bloating compared with control”. In series [7] (setting [10]), the “nausea scores (VAS)” value was “no difference in nausea scores between C10 and control”; the “scores for hunger (VAS)” value was “no differences were found between C10 and control”; the “scores for prospective consumption (VAS)” value is “no differences were found between C10 and control”. Further, the “scores for desire to eat (VAS)” value in series [7] (during 90 min intraduodenal infusion, 0.375 kcal/min, healthy males, compared with control) is “no differences were found between C10 and control”.
Take `CCCCCCCCCCCCCCCCCC(=O)O` [C18]: in series [1] (duodenal infusion), the “stimulation of CCK secretion” value is recorded as “reported to stimulate CCK secretion”.
